Data taken from patent publication US8435960B2, “Devices for improved wound management” (Lakewood-Amedex, Inc., priority 1998, dated 2013).
Strand notation (5' to 3'): a small letter for the sugar, then the base; units joined by * are phosphorothioate-linked, units joined directly phosphodiester-linked; [ ] holds rarer units or linkages, { } end groups; capitals alone tell only the bases. [invdT] = inverted (3'-3') thymidine; {BuOH} = butanol end-blocking group; m = 2'-O-methyl

Columns and labels:
Strep. mutans = assay: Stationary growth assay, Strep. mutans; assay type: cell-based; conditions: 16 A260 units; for CFU/ml: Strep. mutans 10^7 CFU/ml start; for Inhibition (%): Strep. mutans, approx. 24 hours
[1] = system: Pseudomonas aeruginosa (Strain Utah 4); assay: Burn wound infection model, subcutaneous (systemic) infection; assay type: in vivo, BALB/c female mice
[2] = system: Pseudomonas aeruginosa (Strain Utah 4); assay: Burn wound infection model, topical infection and topical treatment; assay type: in vivo, BALB/c female mice; conditions: for % Survival / No. Survivors/Total: topical infection, topical treatment
S. aureus ACC # 13301 = assay: Limited nutrient growth study, S. aureus; assay type: cell-based; conditions: approx. 24 hours; for Inhibition (%): oligonucleotide pH 1.5, 32 A260 units
[3] = system: P. aeruginosa ACC # 10145; assay: Limited nutrient growth study, P. aeruginosa; assay type: cell-based; conditions: approx. 24 hours; for Inhibition (%): oligonucleotide pH 1.5, 32 A260 units
S. aureus = assay: Stationary growth assay, S. aureus; assay type: cell-based; conditions: S. aureus 10^7 CFU/ml start, 32 A260 units
Strep. pyogenes = assay: Treatment of Strep. pyogenes skin infection on a dog; assay type: in vivo; conditions: cut on abdomen, Neosporin for 3 days, nucleic acid pH 1.5, two treatments separated by 12 hours
Pseudomonas aeruginosa [4] = assay: Topical treatment of outer ear infections in chinchillas; assay type: in vivo
Pseudomonas aeruginosa [5] = assay: Systemic Pseudomonas burn model of infection (Example 9); assay type: in vivo, mice
Pseudomonas aeruginosa [6] = assay: Topical Pseudomonas burn model of infection in immuno-compromised mice (Example 9); assay type: in vivo; conditions: topical treatment at 4 hrs. and 8 hrs. post infection, pH 1.5
Staphylococcal furuncle = assay: Treatment of Staphylococcal furuncle in a human subject; assay type: in vivo
[7] = topical treatment 1800 A/ml, individual mice # 1-3, NG = no growth
[8] = mice, burn wound infection with 5 LD50 P. aeruginosa, summary of all studies
[9] = pH of nucleic acid 3, 32 A260 units
[10] = pH of nucleic acid 4, 32 A260 units
[11] = pH of nucleic acid 5, 32 A260 units
[12] = pH of nucleic acid 7, 32 A260 units
[13] = after 16 hours from the initial treatment

114.6: 2′-O-methyl substituted ribonucleotides phosphodiester linked with 5′ and 3′ inverted T end-blocking, sequence CGCCAT
CFU/ml (Strep. mutans; pH 3): 0 CFU/ml | CFU/ml (Strep. mutans; pH 7): 10^7 CFU/ml | Inhibition (%) (Strep. mutans; pH 3): 100% | Inhibition (%) (Strep. mutans; pH 7): 0%

114.21: 2′-O-methyl substituted ribonucleotides phosphodiester linked with 5′ and 3′ inverted T end-blocking, sequence GGAACGCGCCATTGGTATATC (all 2'-O-methyl, all phosphodiester, 5' [invdT], 3' [invdT], T or U not given here)
CFU/ml (Strep. mutans; pH 3): 0 CFU/ml | CFU/ml (Strep. mutans; pH 7): 10^7 CFU/ml | Inhibition (%) (Strep. mutans; pH 3): 100% | Inhibition (%) (Strep. mutans; pH 7): 0%

CO[C@@H]1[C@H](O)[C@@H](COP(=O)(O)O)O[C@H]1n1ccc(=O)[nH]c1=O [compound 6, 2′-O-methyl Uridine monophosphate]
# Survivors/Total Animals Tested ([1]; mouse, in vivo): 0/5 | % Survival ([1]; mouse, in vivo): 0% | therapeutic activity ([1]; mouse, in vivo): did not appear to show any therapeutic activity

HO—CH2CH2CH2CH2-ACg•CgC•CAU•Ugg-CH2CH2CH2CH2—OH [B2]
# Survivors/Total Animals Tested ([1]; mouse, in vivo): 28/30 | No. Survivors/Total Animals ([1]; mouse, in vivo): 5/5 | survival rate ([1]; mouse, in vivo): 100% | survival rate (efficacy) ([1]; mouse, in vivo, iv): 80% | survival rate (efficacy) ([1]; mouse, in vivo, sc): 40% | % Survival ([2]; concentration 335 A/ml): 40% | No. Survivors/Total ([2]; concentration 335 A/ml): 2/5 | % Survival ([2]; concentration 1800 A/ml): 90% | No. Survivors/Total ([2]; concentration 1800 A/ml): 9/10 | Microbiological quantitation of tissues, Blood [2, 7]: devoid of any detectable CFUs | Microbiological quantitation of tissues, Livers [2, 7]: two out of three | Microbiological quantitation of tissues, Spleens [2, 7]: devoid of any detectable CFUs

HO—CH2CH2CH2CH2-ACg•CgC•CAU•Ugg-CH2CH2CH2CH2—OH [B7]
# Survivors/Total Animals Tested ([1]; mouse, in vivo): 2/5 | % Survival ([1]; mouse, in vivo): 40% | % Survival ([2]; concentration 1800 A/ml): 40% | No. Survivors/Total ([2]; concentration 1800 A/ml): 2/5

HO—CH2CH2CH2CH2-AUG-CH2CH2CH2CH2—OH [compound 2]
# Survivors/Total Animals Tested ([1]; mouse, in vivo): 3/5 | % Survival ([1]; mouse, in vivo): 60%

HO—CH2CH2CH2CH2-CgC•CAU—CH2CH2CH2CH2—OH [compound 7]
# Survivors/Total Animals Tested ([1]; mouse, in vivo): 2/5 | % Survival ([1]; mouse, in vivo): 40%

HO—CH2CH2CH2CH2-G-CH2CH2CH2CH2—OH [compound 3]
# Survivors/Total Animals Tested [1, 8]: 3/5 | % Survival [1, 8]: 60%

HO—CH2CH2CH2CH2-GGG-CH2CH2CH2CH2—OH [compound 5]
# Survivors/Total Animals Tested ([1]; mouse, in vivo): 3/5 | % Survival ([1]; mouse, in vivo): 60%

HO—CH2CH2CH2CH2—UUU—CH2CH2CH2CH2—OH [compound 4]
# Survivors/Total Animals Tested ([1]; mouse, in vivo): 2/5 | % Survival ([1]; mouse, in vivo): 40%

Homopolymer, 12 A: AAAAAAAAAAAA, 2′-O-methyl substituted ribonucleotides phosphodiester linked, 3′ and 5′ butanol end-blocking ({BuOH}-mAmAmAmAmAmAmAmAmAmAmAmA-{BuOH})
Inhibition (%) (S. aureus ACC # 13301): 100% | Inhibition (%) [3]: 100%

Homopolymer, 12 C: CCCCCCCCCCCC, 2′-O-methyl substituted ribonucleotides phosphodiester linked, 3′ and 5′ butanol end-blocking ({BuOH}-mCmCmCmCmCmCmCmCmCmCmCmC-{BuOH})
Inhibition (%) (S. aureus ACC # 13301): 100% | Inhibition (%) [3]: 100%

Homopolymer, 12 G: GGGGGGGGGGGG, 2′-O-methyl substituted ribonucleotides phosphodiester linked, 3′ and 5′ butanol end-blocking ({BuOH}-mGmGmGmGmGmGmGmGmGmGmGmG-{BuOH})
Inhibition (%) (S. aureus ACC # 13301): 100% | Inhibition (%) [3]: 100%

Homopolymer, 12 U: UUUUUUUUUUUU, 2′-O-methyl substituted ribonucleotides phosphodiester linked, 3′ and 5′ butanol end-blocking (2'-O-methyl; butanol end caps)
Inhibition (%) (S. aureus ACC # 13301): 100% | Inhibition (%) [3]: 100%

SEQ ID NO: 1: 2′-O-methyl ribonucleotides, phosphodiester linkage, 5′ and 3′ inverted T end-blocked, sequence CGCCATTGG (all 2'-O-methyl, all phosphodiester, 5' [invdT], 3' [invdT], T or U not given here)
CFU/ml (S. aureus; pH of nucleic acid 2, approx. 24 hours): 0 CFU/ml | CFU/ml (S. aureus; pH of nucleic acid 3): 10^3 CFU/ml | CFU/ml (S. aureus; pH of nucleic acid 4): 10^6 CFU/ml | CFU/ml (S. aureus; pH of nucleic acid 5): 10^7 CFU/ml | CFU/ml (S. aureus; pH of nucleic acid 7): 10^7 CFU/ml | Inhibition of Growth (%) (S. aureus ACC # 13301; pH of nucleic acid 2, 32 A260 units, A625): 100% | Inhibition of Growth (%) (S. aureus ACC # 13301; [9]): 100% | Inhibition of Growth (%) (S. aureus ACC # 13301; [10]): 100% | Inhibition of Growth (%) (S. aureus ACC # 13301; [11]): 16% | Inhibition of Growth (%) (S. aureus ACC # 13301; [12]): 0% | Inhibition of Growth (%) ([3]; pH of nucleic acid 2, 32 A260 units): 100% | Inhibition of Growth (%) [3, 9]: 100% | Inhibition of Growth (%) [3, 10]: 100% | Inhibition of Growth (%) [3, 11]: 0% | Inhibition of Growth (%) [3, 12]: 0%

SEQ ID NO: 9: ACGCGCCATTAT, 2′-O-methyl substituted ribonucleotides, phosphodiester linked, end blocked with an inverted T at both the 5′ and 3′ ends (all 2'-O-methyl, all phosphodiester, 5' [invdT], 3' [invdT], T or U not given here)
outcome of Strep. pyogenes skin infection (Strep. pyogenes): completely cleared up the infection, swelling, inflammation, and sensitivity to touch | effectiveness in vehicle mixture (water/ethanol/propylene glycol) compared with water (Pseudomonas aeruginosa [4]; otoscopic examination, 2 mMolar in vehicle mixture vs 2.8 mMolar in water): slightly more effective | outcome of ear infections by otoscopic examination (Pseudomonas aeruginosa [4]; two daily topical applications, pH 1.5, by day 7 post infection (4 days after treatment began)): completely cured | survival of treated mice (Pseudomonas aeruginosa [5]; 10^6 or 10^7 CFU S.C. after burn, treatment I.V. (40% of dose) and S.C., 40 treated mice, pH 1.5): 100% | Pseudomonas bacteria in the spleen, liver, or blood (Pseudomonas aeruginosa [5]; treated surviving mice sacrificed and checked for sepsis): not detected | survival of treated animals (Pseudomonas aeruginosa [6]; cyclophosphamide-treated mice, 10^9 CFU topically on burn): 100% | systemic Pseudomonas infection in treated animals (Pseudomonas aeruginosa [6]): free of systemic Pseudomonas infections | furuncle size (Staphylococcal furuncle; 1.5 cm furuncle, after 8 hours of treatment, 100 μl, 18.9 mMolar in water, pH 1.5): approximately 0.5 cm | size of remaining pinkish area of the furuncle (Staphylococcal furuncle; [13]): < 0.5 cm | swelling, pain, inflammation of furuncle (Staphylococcal furuncle; [13]): virtually no swelling, pain, or inflammation

dihydroxydibutyldiphophate 2′-O-methyl uridine [BUB]
# Survivors/Total Animals Tested ([1]; mouse, in vivo): 7/8 | % Survival ([1]; mouse, in vivo): 87.5%
